Consider 15 molecules from patent publication US11999727B2 (Tango Therapeutics, Inc., priority 2020, dated 2024).

In experiment [1] the target is T1, PRMT5 (Homo sapiens, UniProt O14744).
T1 construct: purchased Viva (custom protein)
The experiment is described as follows: PRMT5 biochemical IC50 assay with SAM as cofactor. The settings on record: PRMT5, SAM as cofactor; read-out: SAM IC50.

The subject of experiment [2] is HAP1 MTAP-intact cell line. The experiment is described as follows: SDMA in-cell western assay, HAP1 MTAP-intact. The format is cell-based. The settings on record: Homo sapiens, HAP1, SDMA in-cell western, HAP1 MTAP-intact; read-out: MTAP HAP1 intact IC50. Summed up: (§1)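 Compounds were tested in HAP1 cells differing only in MTAP status (endogenous expression versus null). Cellular SDMA levels were then measured by in-cell western, giving an IC50 in each background.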

Experiment [3] has as its system HAP1 MTAP-deleted cell line. Briefly: Viability assay, MTAP-deleted cell line. The format is cell-based. The settings on record: Homo sapiens, read-out: HAP1 MTAP deleted viability. From the text:
Table 1 additionally indicates IC50 values in a viability assay for the MTAP-deleted cell line (column 10), indicating the effect of treatment with compound on cell survival.

The target of experiment [4] is T1, PRMT5. Briefly: PRMT5 biochemical IC50 assay with MTA as cofactor. The settings on record: PRMT5, MTA as cofactor; read-out: MTA IC50.
Experiment [5] concerns HAP1 MTAP-deleted cell line. The experiment is described as follows: SDMA in-cell western assay, HAP1 MTAP-deleted. Type of experiment: cell-based. The settings on record: for IC50: Homo sapiens, HAP1, SDMA in-cell western, HAP1 MTAP-deleted; for MTAP intact/deleted ratio: IC50 ratio HAP1 MTAP-intact / HAP1 MTAP-deleted, SDMA in-cell western. In outline:
as §1

Experiment [6] deals with T1, PRMT5. The experiment is described as follows: PRMT5 biochemical IC50 assay with no cofactor. The settings on record: PRMT5, no cofactor. From the text: Table 1 indicates IC50 values (μM) against PRMT5 for exemplary compounds in the presence of SAM as cofactor, with no cofactor, and with MTA as cofactor, respectively (columns 4-6). […] Ki values can be calculated from the IC50 values as described in the Examples section. As detailed in the Examples section, for the assay performed in the presence of SAM, IC50=Ki×1.5 (Ki=IC50/1.5).

Where [7] appears, read: HAP1, viability assay, MTAP-deleted cell line.
Setting [8] is: read-out: HAP1 MTAP deleted IC50.
[9] abbreviates: HAP1, viability, HAP1 MTAP-deleted cell line.
Setting [10] is: read-out: HAP 1 MTAP deleted IC50.
Setting [11] is: read-out: No Cofactor/ rel IC50.

T1 sequence (O14744 whole entry): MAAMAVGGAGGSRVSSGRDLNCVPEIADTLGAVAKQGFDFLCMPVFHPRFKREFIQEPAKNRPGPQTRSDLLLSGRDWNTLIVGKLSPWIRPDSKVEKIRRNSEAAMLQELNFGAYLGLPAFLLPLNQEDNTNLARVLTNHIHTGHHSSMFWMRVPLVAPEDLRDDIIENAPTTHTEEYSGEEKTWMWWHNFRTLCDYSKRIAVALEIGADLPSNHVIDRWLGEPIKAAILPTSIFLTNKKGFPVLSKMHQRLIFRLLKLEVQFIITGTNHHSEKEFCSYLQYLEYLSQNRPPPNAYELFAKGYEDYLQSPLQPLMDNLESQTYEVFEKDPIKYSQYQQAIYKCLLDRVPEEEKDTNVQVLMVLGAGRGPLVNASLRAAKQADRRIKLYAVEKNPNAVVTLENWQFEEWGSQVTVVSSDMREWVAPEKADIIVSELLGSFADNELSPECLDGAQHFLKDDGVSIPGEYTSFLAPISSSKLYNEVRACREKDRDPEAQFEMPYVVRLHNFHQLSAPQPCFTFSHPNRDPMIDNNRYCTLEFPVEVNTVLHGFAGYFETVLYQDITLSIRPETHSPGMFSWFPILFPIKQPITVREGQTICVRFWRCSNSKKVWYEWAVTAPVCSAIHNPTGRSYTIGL
T1 sequence (Q9BQA1 whole entry partner): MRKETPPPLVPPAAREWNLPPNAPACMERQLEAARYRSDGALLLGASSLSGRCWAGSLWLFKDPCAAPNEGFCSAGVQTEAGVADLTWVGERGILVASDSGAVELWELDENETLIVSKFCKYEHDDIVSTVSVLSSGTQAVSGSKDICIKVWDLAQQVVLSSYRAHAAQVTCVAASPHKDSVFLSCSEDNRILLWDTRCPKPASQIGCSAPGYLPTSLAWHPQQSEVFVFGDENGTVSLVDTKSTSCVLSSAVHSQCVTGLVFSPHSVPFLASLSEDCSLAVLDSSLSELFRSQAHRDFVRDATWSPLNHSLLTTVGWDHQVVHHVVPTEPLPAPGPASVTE

Turning to `Cc1cc(NC(=O)C(=O)N2CCCC[C@H]2C2CCCC2)cnc1N` (single isomer, unassigned) [Compound 340], the IC50 on PRMT5 [1] is 50 to 500 nM; in experiment [2], over 1000 nM; in experiment [3] (setting [7]), 1000 to 10000 nM; at PRMT5 [4], under 50 nM; in experiment [5] (setting [8]), 100 to 1000 nM; on PRMT5 [6] (read-out: No Cofactor/rel IC50), 50 to 500 nM. Moreover, in experiment [5], the MTAP intact/deleted ratio entry was “A (an IC50 ratio greater than or equal to 10 fold)”.

On to `COc1ncc(NC(=O)C(=O)N2C[C@H](C)[C@H](OC)C[C@H]2c2ccc3scnc3c2)cc1C(N)=O` (single isomer, unassigned) [Compound 1364], for which the IC50 was 50 to 500 nM on PRMT5 [1]; 100 to 1000 nM in experiment [2]; under 1000 nM in experiment [3] (setting [9]); under 50 nM at PRMT5 [4]; under 100 nM in experiment [5] (setting [10]); under 50 nM on PRMT5 [6] (setting [11]). Moreover, the “MTAP intact/deleted ratio” value in experiment [5] is “A (an IC50 ratio greater than or equal to 10 fold)”.

Regarding `CC(=O)Nc1ccc([C@H]2CC[C@H](C)CN2C(=O)C(=O)Nc2cnc(N)c(C)c2)cn1` (single isomer, unassigned) [Compound 915], the IC50 on PRMT5 [1] is 50 to 500 nM; in experiment [2], 100 to 1000 nM; in experiment [3] (setting [7]), 1000 to 10000 nM; on PRMT5 [4], under 50 nM; in experiment [5] (setting [10]) it was under 100 nM; on PRMT5 [6] (read-out: No Cofactor/rel IC50), under 50 nM. Besides, the MTAP intact/deleted ratio entry in experiment [5] is listed as “A (an IC50 ratio greater than or equal to 10 fold)”.

Turning to `C[C@@H]1CN(C(=O)C(=O)Nc2cncc(C(N)=O)c2)[C@@H](c2ccccc2)C[C@H]1O` (racemic) [Compound 459, rac-5-[[2-[(2R,4R,5R)-4-hydroxy-5-methyl-2-phenyl-1-piperidyl]-2-oxo-acetyl]amino]pyridine-3-carboxamide], the IC50 at PRMT5 [1] was 50 to 500 nM; in experiment [2] it was over 1000 nM; in experiment [3] (setting [7]), over 10000 nM; on PRMT5 [4], 50 to 500 nM; in experiment [5] (setting [8]), 100 to 1000 nM; at PRMT5 [6] (read-out: No Cofactor/rel IC50) it was 50 to 500 nM. Further, the MTAP intact/deleted ratio entry in experiment [5] is listed as “A (an IC50 ratio greater than or equal to 10 fold)”.

Regarding `Cc1cc(NC(=O)C(=O)N2CCCCC2C2CCC(F)(F)CC2)cnc1N` (stereo not drawn) [Compound 186, N-(6-amino-5-methyl-3-pyridyl)-2-[2-(4,4-difluorocyclohexyl)-1-piperidyl]-2-oxo-acetamide], the IC50 is 50 to 500 nM on PRMT5 [1]; over 1000 nM in experiment [2]; over 10000 nM in experiment [3] (setting [7]); 50 to 500 nM at PRMT5 [4]; 100 to 1000 nM in experiment [5] (setting [8]); 50 to 500 nM on PRMT5 [6] (read-out: No Cofactor/rel IC50). Besides, the MTAP intact/deleted ratio entry in experiment [5] is “A (an IC50 ratio greater than or equal to 10 fold)”.

As for `CCc1cc(NC(=O)C(=O)N2C[C@@H](C)CC[C@@H]2c2cccc(N3CCN(C)CC3)c2)cnc1N` [Compound 1367, N-(6-amino-5-ethylpyridin-3-yl)-2-((2R,5S)-5-methyl-2-(3-(4-methylpiperazin-1-yl)phenyl)piperidin-1-yl)-2-oxoacetamide], the IC50 was under 50 nM on PRMT5 [1]; 100 to 1000 nM in experiment [2]; under 1000 nM in experiment [3] (setting [9]); under 50 nM on PRMT5 [4]; under 100 nM in experiment [5] (setting [10]); under 50 nM at PRMT5 [6] (setting [11]). In addition, in experiment [5], the “MTAP intact/deleted ratio” value is listed as “A (an IC50 ratio greater than or equal to 10 fold)”.

In the case of `C[C@@H]1CC[C@@H](c2cc(Cl)cc(Cl)c2)N(C(=O)C(=O)Nc2cncc(C(N)=O)c2)C1` (racemic) [Compound 206, rac-5-{2-[(2R,5S)-2-(3,5-Dichlorophenyl)-5-methylpiperidin-1-yl]-2-oxoacetamido}pyridine-3-carboxamide], the IC50 at PRMT5 [1] is 50 to 500 nM; in experiment [2] it was over 1000 nM; in experiment [3] (setting [7]) it was 1000 to 10000 nM; at PRMT5 [4], under 50 nM; in experiment [5] (setting [8]), 100 to 1000 nM; at PRMT5 [6] (read-out: No Cofactor/rel IC50), 50 to 500 nM. For the same molecule, the MTAP intact/deleted ratio result in experiment [5] is “A (an IC50 ratio greater than or equal to 10 fold)”.

For the molecule `Cc1ncc(NC(=O)C(=O)N2C[C@@H](C)CC[C@@H]2c2ccc3sc(C4CCN(C)CC4)nc3c2)cc1C(N)=O` [Compound 1326, 2-methyl-5-(2-((2R,5S)-5-methyl-2-(2-(1-methylpiperidin-4-yl)benzo[d]thiazol-5-yl)piperidin-1-yl)-2-oxoacetamido)nicotinamide], the IC50 at PRMT5 [1] was under 50 nM; in experiment [2], 100 to 1000 nM; in experiment [3] (setting [9]), under 1000 nM; at PRMT5 [4] it was under 50 nM; in experiment [5] (setting [10]), under 100 nM; on PRMT5 [6] (setting [11]) it was under 50 nM. Further, in experiment [5], the “MTAP intact/deleted ratio” value is given as “A (an IC50 ratio greater than or equal to 10 fold)”.

`CCc1cc(NC(=O)C(=O)N2C[C@@H](C)CC[C@@H]2c2ccc3sc(CCOC)nc3c2)cnc1N` (single isomer, unassigned) [Compound 1386]: the IC50 at PRMT5 [1] is 50 to 500 nM; in experiment [2], 100 to 1000 nM; in experiment [3] (setting [9]), under 1000 nM; on PRMT5 [4], under 50 nM; in experiment [5] (setting [10]), under 100 nM; at PRMT5 [6] (setting [11]), under 50 nM. In addition, in experiment [5], the “MTAP intact/deleted ratio” value was “A (an IC50 ratio greater than or equal to 10 fold)”.

Turning to `CCc1cc(NC(=O)C(=O)N2C[C@@H](C)CC[C@@H]2c2ccc3nn(C4CN(C)C4)cc3c2)cnc1N` (racemic) [Compound 1239, N-(6-Amino-5-ethyl-3-pyridyl)-2-oxo-2-[rac-(2R,5S)-5-methyl-2-[2-(1-methylazetidin-3-yl)indazol-5-yl]-1-piperidyl]acetamide], the IC50 on PRMT5 [1] was 50 to 500 nM; in experiment [2] it was 100 to 1000 nM; in experiment [3] (setting [9]) it was under 1000 nM; on PRMT5 [4], under 50 nM; in experiment [5] (setting [10]), under 100 nM; at PRMT5 [6] (setting [11]), under 50 nM. Besides, the “MTAP intact/deleted ratio” value in experiment [5] is on record as “A (an IC50 ratio greater than or equal to 10 fold)”.

For the molecule `Cc1cncc(NC(=O)C(=O)N2C[C@H](C)CC[C@H]2c2cccs2)c1` (single isomer, unassigned) [Compound 68], the IC50 on PRMT5 [1] was 50 to 500 nM; in experiment [2], over 1000 nM; in experiment [3] (setting [7]), over 10000 nM; on PRMT5 [4], under 50 nM; in experiment [5] (setting [10]) it was 100 to 1000 nM; on PRMT5 [6] (setting [11]), 50 to 500 nM. Moreover, the “MTAP intact/deleted ratio” value in experiment [5] was “A (an IC50 ratio greater than or equal to 10 fold)”.

`C[C@@H]1CC[C@@H](c2ccc3c(c2)OCO3)N(C(=O)C(=O)Nc2cncc(C(N)=O)c2)C1` (racemic) [Compound 270, rac-5-{2-[(2R,5S)-2-(1,3-Dioxaindan-5-yl)-5-methylpiperidin-1-yl]-2-oxoacetamido}pyridine-3-carboxamide]: the IC50 on PRMT5 [1] is 50 to 500 nM; in experiment [2], over 1000 nM; in experiment [3] (setting [7]), 1000 to 10000 nM; on PRMT5 [4], under 50 nM; in experiment [5] (setting [8]), under 100 nM; on PRMT5 [6] (read-out: No Cofactor/rel IC50) it was 50 to 500 nM. Also, the MTAP intact/deleted ratio entry in experiment [5] is given as “A (an IC50 ratio greater than or equal to 10 fold)”.

For the molecule `CCc1cc(NC(=O)C(=O)N2C[C@@H](C)CC[C@@H]2c2ccc3nn([C@@H]4CCN(C)C4)cc3c2)cnc1N` (racemic) [Compound 1398, N-(6-Amino-5-ethyl-3-pyridyl)-2-oxo-2-[rac-(2R,5S)-5-methyl-2-[2-[rac-(3R)-1-methylpyrrolidin-3-yl]indazol-5-yl]-1-piperidyl]acetamide], the IC50 on PRMT5 [1] is 50 to 500 nM; in experiment [2], under 100 nM; in experiment [3] (setting [9]), under 1000 nM; at PRMT5 [4], under 50 nM; in experiment [5] (setting [10]), under 100 nM; on PRMT5 [6] (setting [11]), 50 to 500 nM. In experiment [5], the “MTAP intact/deleted ratio” value is “A (an IC50 ratio greater than or equal to 10 fold)”.

On to `Cc1cc(NC(=O)C(=O)N2CC[C@@H](C)C[C@H]2c2ccccc2)cnc1N` (racemic) [Compound 640, N-(6-amino-5-methyl-3-pyridyl)-2-[(2R,4S)-4-methyl-2-phenyl-1-piperidyl]-2-oxo-acetamide], for which the IC50 was 50 to 500 nM at PRMT5 [1]; over 1000 nM in experiment [2]; 1000 to 10000 nM in experiment [3] (HAP1, viability IC50, MTAP-deleted cell line); 50 to 500 nM on PRMT5 [4]; 100 to 1000 nM in experiment [5] (setting [10]); 50 to 500 nM at PRMT5 [6] (read-out: No Cofactor/rel IC50). The MTAP intact/deleted ratio result in experiment [5] was “A (an IC50 ratio greater than or equal to 10 fold)”.

As for `COc1ncc(NC(=O)C(=O)N2C[C@H](C)CC[C@H]2c2ccc3c(c2)CNC3=O)cc1C(N)=O` (single isomer, unassigned) [Compound 749, 2-methoxy-5-(2-(5-methyl-2-(1-oxoisoindolin-5-yl)piperidin-1-yl)-2-oxoacetamido)nicotinamide], the IC50 is 50 to 500 nM on PRMT5 [1]; over 1000 nM in experiment [2]; 1000 to 10000 nM in experiment [3] (HAP1, viability assay, HAP1 MTAP-deleted); under 50 nM at PRMT5 [4]; 100 to 1000 nM in experiment [5] (setting [8]); 50 to 500 nM at PRMT5 [6] (read-out: No Cofactor/rel IC50). Further, in experiment [5], the MTAP intact/deleted ratio entry was “A (an IC50 ratio greater than or equal to 10 fold)”.
